Common to all, as to assay: Ca2+ mobilization, GFP-apoaequorin luminescence in CHO-K1 with Gα-16
On the technique in general: A change in cytosolic calcium serves as a functional read-out for many receptors and channels.

Experiment [1] addresses T1, P. dumerilii Octopamine α (Platynereis dumerilii, UniProt A0A1J0F445).
T1 construct: full-length in pcDNA3.1(+), expressed in CHO-K1 with Gα-16 and GFP-apoaequorin
T1 sequence (A0A1J0F445 1-603): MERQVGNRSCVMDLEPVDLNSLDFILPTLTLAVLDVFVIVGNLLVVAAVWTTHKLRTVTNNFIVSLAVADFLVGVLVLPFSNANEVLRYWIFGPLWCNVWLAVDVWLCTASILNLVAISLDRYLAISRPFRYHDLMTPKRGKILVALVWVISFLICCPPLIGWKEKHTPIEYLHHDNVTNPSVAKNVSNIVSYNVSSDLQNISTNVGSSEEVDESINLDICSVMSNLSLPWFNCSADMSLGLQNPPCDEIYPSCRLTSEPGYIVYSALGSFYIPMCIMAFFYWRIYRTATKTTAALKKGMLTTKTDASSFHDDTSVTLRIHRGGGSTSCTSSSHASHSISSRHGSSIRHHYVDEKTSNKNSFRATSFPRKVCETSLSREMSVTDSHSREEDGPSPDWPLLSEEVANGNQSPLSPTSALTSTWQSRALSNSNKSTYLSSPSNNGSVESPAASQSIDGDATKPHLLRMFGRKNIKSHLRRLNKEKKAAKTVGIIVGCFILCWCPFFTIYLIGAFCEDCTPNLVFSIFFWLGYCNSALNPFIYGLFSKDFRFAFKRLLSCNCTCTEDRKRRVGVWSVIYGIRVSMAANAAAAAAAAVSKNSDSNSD
The experiment is classed as cell-based. From the text: Ca2+ mobilization, GFP-apoaequorin luminescence in CHO-K1 with Gα-16 on P. dumerilii Octopamine α

Experiment [2] relates to T2, S. kowalevskii Octopamine α.
T2 construct: gene Octopamine alpha receptor; full-length in pcDNA3.1(+), expressed in CHO-K1 with Gα-16 and GFP-apoaequorin
The experiment is classed as cell-based, Saccoglossus kowalevskii. To be noted: agonist, HBSS, 1.8 mM Ca2+, 10 mM glucose. From the text: Ca2+ mobilization, GFP-apoaequorin luminescence in CHO-K1 with Gα-16 on S. kowalevskii Octopamine α

In a further experiment the target is T3, P. dumerilii Tyramine-2 (Platynereis dumerilii, UniProt A0A1J0F4P1).
T3 construct: full-length in pcDNA3.1(+), expressed in CHO-K1 with Gα-16 and GFP-apoaequorin
T3 sequence (A0A1J0F4P1 1-460): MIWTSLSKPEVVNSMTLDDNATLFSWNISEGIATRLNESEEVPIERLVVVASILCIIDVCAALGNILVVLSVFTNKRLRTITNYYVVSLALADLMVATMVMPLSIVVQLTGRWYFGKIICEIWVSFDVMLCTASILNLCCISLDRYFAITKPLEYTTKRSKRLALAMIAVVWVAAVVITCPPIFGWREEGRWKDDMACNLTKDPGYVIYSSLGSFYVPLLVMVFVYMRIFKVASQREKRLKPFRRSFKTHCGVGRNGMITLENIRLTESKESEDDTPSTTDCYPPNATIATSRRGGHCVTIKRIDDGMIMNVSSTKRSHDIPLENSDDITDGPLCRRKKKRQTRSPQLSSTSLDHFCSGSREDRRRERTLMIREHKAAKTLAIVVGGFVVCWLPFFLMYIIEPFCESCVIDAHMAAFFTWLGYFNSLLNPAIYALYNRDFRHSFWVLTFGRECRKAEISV
The experiment is classed as cell-based. From the text: Ca2+ mobilization, GFP-apoaequorin luminescence in CHO-K1 with Gα-16 on P. dumerilii Tyramine-2

Experiment [3] deals with T4, S. kowalevskii Tyramine-2A (Saccoglossus kowalevskii, UniProt A0ABM0GNT8).
T4 construct: gene LOC100366600; full-length in pcDNA3.1(+), expressed in CHO-K1 with Gα-16 and GFP-apoaequorin
T4 sequence (A0ABM0GNT8 1-458): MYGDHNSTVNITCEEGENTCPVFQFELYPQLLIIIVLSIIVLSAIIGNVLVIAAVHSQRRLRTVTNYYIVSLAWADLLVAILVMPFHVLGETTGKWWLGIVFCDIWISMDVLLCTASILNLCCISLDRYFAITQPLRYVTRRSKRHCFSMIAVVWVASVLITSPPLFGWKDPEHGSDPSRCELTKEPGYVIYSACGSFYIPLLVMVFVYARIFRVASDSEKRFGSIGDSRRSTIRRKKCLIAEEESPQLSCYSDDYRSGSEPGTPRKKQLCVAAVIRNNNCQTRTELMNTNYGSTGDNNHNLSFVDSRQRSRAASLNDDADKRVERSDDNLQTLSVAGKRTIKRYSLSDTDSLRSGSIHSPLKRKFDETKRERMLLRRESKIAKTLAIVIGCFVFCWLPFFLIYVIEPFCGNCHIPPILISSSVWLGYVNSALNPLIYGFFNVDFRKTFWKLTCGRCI
Format: cell-based. From the text: Ca2+ mobilization, GFP-apoaequorin luminescence in CHO-K1 with Gα-16 on S. kowalevskii Tyramine-2A

For experiment [4], the target named is T5, S. kowalevskii Tyramine-1 (Saccoglossus kowalevskii, UniProt A0ABM0H1U8).
T5 construct: gene LOC100368763; full-length in pcDNA3.1(+), expressed in CHO-K1 with Gα-16 and GFP-apoaequorin
T5 sequence (A0ABM0H1U8 1-430): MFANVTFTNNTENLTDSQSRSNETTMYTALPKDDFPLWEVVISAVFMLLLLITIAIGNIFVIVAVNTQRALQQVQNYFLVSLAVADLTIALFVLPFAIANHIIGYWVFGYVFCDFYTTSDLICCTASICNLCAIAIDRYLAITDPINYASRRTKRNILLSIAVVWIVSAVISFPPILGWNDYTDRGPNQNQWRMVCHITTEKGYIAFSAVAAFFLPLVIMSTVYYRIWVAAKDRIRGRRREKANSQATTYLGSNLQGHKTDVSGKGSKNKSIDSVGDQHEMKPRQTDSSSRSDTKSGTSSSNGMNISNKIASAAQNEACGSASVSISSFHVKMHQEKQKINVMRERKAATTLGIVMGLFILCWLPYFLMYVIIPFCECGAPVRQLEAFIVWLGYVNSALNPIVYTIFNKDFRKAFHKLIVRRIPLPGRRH
The experiment is classed as cell-based. From the text: Ca2+ mobilization, GFP-apoaequorin luminescence in CHO-K1 with Gα-16 on S. kowalevskii Tyramine-1

The target of experiment [5] is T6, S. kowalevskii Tyramine-2B (Saccoglossus kowalevskii, UniProt A0ABM0LZ08).
T6 construct: gene LOC102801068; full-length in pcDNA3.1(+), expressed in CHO-K1 with Gα-16 and GFP-apoaequorin
T6 sequence (A0ABM0LZ08 1-489): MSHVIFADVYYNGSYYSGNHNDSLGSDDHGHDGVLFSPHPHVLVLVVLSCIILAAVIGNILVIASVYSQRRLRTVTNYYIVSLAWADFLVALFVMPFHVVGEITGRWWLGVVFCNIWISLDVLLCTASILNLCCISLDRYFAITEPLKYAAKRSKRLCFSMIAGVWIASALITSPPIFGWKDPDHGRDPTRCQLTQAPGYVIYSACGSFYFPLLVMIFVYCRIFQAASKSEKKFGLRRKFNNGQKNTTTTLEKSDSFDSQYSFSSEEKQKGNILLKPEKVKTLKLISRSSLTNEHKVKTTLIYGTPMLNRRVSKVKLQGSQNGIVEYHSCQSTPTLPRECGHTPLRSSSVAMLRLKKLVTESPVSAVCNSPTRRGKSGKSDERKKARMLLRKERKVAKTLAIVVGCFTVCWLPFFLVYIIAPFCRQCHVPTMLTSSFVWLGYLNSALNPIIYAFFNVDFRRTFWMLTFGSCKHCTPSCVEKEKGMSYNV
Format: cell-based. From the text:
Ca2+ mobilization, GFP-apoaequorin luminescence in CHO-K1 with Gα-16 on S. kowalevskii Tyramine-2B

The target of the next experiment is T7, P. dumerilii Tyramine-1 (Platynereis dumerilii, UniProt A0A0K0PUV5).
T7 construct: full-length in pcDNA3.1(+), expressed in CHO-K1 with Gα-16 and GFP-apoaequorin
T7 sequence (A0A0K0PUV5 1-428): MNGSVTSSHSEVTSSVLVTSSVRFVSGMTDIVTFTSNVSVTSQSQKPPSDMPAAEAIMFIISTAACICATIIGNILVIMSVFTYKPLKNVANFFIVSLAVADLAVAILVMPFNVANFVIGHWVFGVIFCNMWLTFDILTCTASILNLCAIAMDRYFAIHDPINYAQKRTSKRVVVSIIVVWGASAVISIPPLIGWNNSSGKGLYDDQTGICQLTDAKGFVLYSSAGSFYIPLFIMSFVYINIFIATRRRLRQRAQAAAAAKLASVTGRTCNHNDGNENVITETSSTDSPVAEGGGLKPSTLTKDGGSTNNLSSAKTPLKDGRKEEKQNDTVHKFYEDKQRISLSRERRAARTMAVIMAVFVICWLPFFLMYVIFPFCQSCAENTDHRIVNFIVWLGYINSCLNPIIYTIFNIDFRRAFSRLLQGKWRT
The experiment is classed as cell-based. From the text: Ca2+ mobilization, GFP-apoaequorin luminescence in CHO-K1 with Gα-16 on P. dumerilii Tyramine-1

Read-outs that look alike come from different tables or passages of the source.

The source of these data is paper PMC5282848, “Ancient coexistence of norepinephrine, tyramine, and octopamine signaling in bilaterians” (BMC Biology, 2017).

As for `NC[C@H](O)c1ccc(O)cc1` [octopamine], the EC50 in experiment [1] (read-out: Octopamine) was determined as 260 nM; in experiment [2] (read-out: Octopamine) it was 690 nM.
On to `COC(=O)[C@@H]1[C@H]2C[C@H]3c4[nH]c5ccccc5c4CCN3C[C@@H]2CC[C@@H]1O` [yohimbine], for which the IC50 in experiment [1] (read-out: Yohimbine) came to 9 nM.
For the compound `NCCc1ccc(O)cc1` [tyramine], the EC50 on P. dumerilii Tyramine-2 came out at 7 nM; in experiment [3], 1 nM; in experiment [4] it was 86000 nM; in experiment [5], 5.9 nM; at P. dumerilii Tyramine-1 it was 11 nM.
For `Clc1cccc(Cl)c1NC1=NCCN1` [clonidine], the figures for the EC50 in experiment [1] (read-out: Clonidine) and in experiment [2] (read-out: Clonidine) were 140 nM and 160 nM, respectively.
